Data published in patent publication US11840495B2, “Compositions and methods related to di-substituted bicyclo[2.2.1] heptanamine-containing compounds” (The Broad Institute, Inc., priority 2020, dated 2023).
Where two headings read alike, the source gives them in different places.

Tests used:
[1] = tested on: MUC1-fs; assay: Immunofluorescence imaging of MUC1-fs in P cells (Example 2); type: cell-based; details: for EC50: 48 hr incubation, MUC1-fs; for Emax / ECMax (%): 48 hr; for Emax: DMSO = 0, JQ1 = −100% activity, in %; for ECMax (%): DMSO = 0, JQ1 (250 nM) = −100% activity
Procedure: (§1) P cells were seeded 24 hr prior to compound treatment at a density of 12,000 cells/well in 384 well Cell Carrier Ultra plates (6057308, Perkin Elmer), pre-coated with 0.25 mg/mL Synthemax II SC Substrate (3535, Corning). Compounds were used at 5 doses (35, 3.5, 0.35, 0.035 and 0.0035 μM) for the primary screen and 10 doses (16, 5.6, 1.8, 0.6, 0.21, 0.07, 0.02, 0.008, 0.002 and 0.0008 μM) for the following screens. The compounds, in two replicates, were transferred from compound source plates to the cell plates using the HighRes Pin Tool. DMSO was used as a negative control and JQ1 (250 nM) (a bromodomain inhibitor) was chosen as a positive control, based on earlier studies showing its potent effect on reducing total MUC1 mRNA levels (data not shown). After 48 hr incubation, cells were fixed for 20 min in 4% PFA (Electron Microscopy Sciences) in PBS, washed twice, then permeabilized (10 min) with 0.5% Triton-X100 (X100-100ML, Sigma-Aldrich) in PBS and washed once more. Cells were blocked for 10 min at RT with Blocking solution (100 mM Tris HCL pH8; 150 mM NaCL; 5 g/L Blocking Reagent [11096176001, Roche]), then incubated 90 min at RT with one of the following primary antibodies in Roche Blocking solution: 1:500, monoclonal Fab-A-VSH anti-MUC1-fs, AbD22655.2, Bio-Rad; 1:2000, monoclonal mouse anti-MUC1 (214D4), 05-652-KC, Millipore; 1:1000, monoclonal, Rabbit anti-GM130 (D6B1) XP, 12480, Cell signaling technology. The primary antibody cocktail was incubated at RT for 1.5 hr, followed by four PBS wash cycles. The secondary antibody cocktail contained four components that were all prepared at a 1:1000 dilution in the Roche blocking solution and consisted of Alexa Fluor® 488-conjugated AffiniPure F(ab′)2 Fragment Goat anti-Human IgG, 109-546-097, Jackson Immunoresearch; Alexa Fluor® 647-conjugated Goat anti-Rabbit IgG, A-21246, Thermo Fisher Scientific®; Alexa Fluor® 546 Goat anti-mouse IgG, A-21123, Thermo Fisher Scientific® and Hoechst 33342 stain (62249, Thermo Fisher Scientific®). The secondary antibody cocktail was incubated at RT for 45 min, followed by four PBS wash cycles. Finally, plates were sealed with a Plate Loc plate and stored in Liconic incubator at 10° C. until imaging. Following image analysis, three parameters were selected, i) MUC1-fs and ii) MUC1-wt total cytoplasm intensity (averaged per cell) and iii) cell number as was detected by Hoechst 33342 stained nuclei. The levels of MUC1-fs and MUC1-wt found following DMSO and JQ1 were defined as 0 and −100% activity, respectively. The values obtained for all compounds were normalized accordingly. Cell number was normalized to DMSO control.

[2] = tested on: MUC1-wt; assay: Immunofluorescence imaging of MUC1-wt in P cells (Example 2); type: cell-based; details: for EC50: 48 hr incubation, MUC1-wt; for WT EMax / WT ECMax (%): 48 hr; for WT EMax: DMSO = 0, JQ1 = −100% activity, in %; for WT ECMax (%): DMSO = 0, JQ1 (250 nM) = −100% activity
Procedure: as §1

Molecule: Cl.NCC1CCCC2(C1)C1CCC(C1)C2N (racemic) [Compound 221, rac-3′-(aminomethyl)spiro[bicyclo[2.2.1]heptane-2,1′-cyclohexan]-3-amine hydrochloride]
- EC50 ([1]; read-out: EC50): > 16 µM
- Emax [1]: 16.2
- EC50 ([2]; read-out: WT EC50): > 16 µM
- WT EMax [2]: 15.6

Molecule: COC1CC2(CC1OC)C1CCC(C1)C2N.Cl (racemic) [Compound 229, rac-3′,4′-dimethoxyspiro[bicyclo[2.2.1]heptane-2,1′-cyclopentan]-3-amine hydrochloride]
- EC50 ([1]; read-out: EC50): 15.5 µM
- Emax [1]: −48.1
- EC50 ([2]; read-out: WT EC50): > 16 µM
- WT EMax [2]: 10.3

Molecule: CC1CCC2(CC1C)C1CCC(C1)C2N (racemic) [Compound 240, rac-3′,4′-dimethylspiro[bicyclo[2.2.1]heptane-2,1′-cyclohexan]-3-amine]
- EC50 ([1]; read-out: EC50): > 16 µM
- Emax [1]: −34.8
- EC50 ([2]; read-out: WT EC50): > 16 µM
- WT EMax [2]: −11.1

Molecule: CC12CC3(CC1(C)C2)C1CCC(C1)C3N.Cl (racemic) [Compound 237, rac-1′,5′-dimethylspiro[bicyclo[2.2.1]heptane-2,3′-bicyclo[3.1.0]hexan]-3-amine hydrochloride]
- EC50 ([1]; read-out: EC50): 13.3 µM
- Emax [1]: −45.1
- EC50 ([2]; read-out: WT EC50): > 16 µM
- WT EMax [2]: −10.0

Molecule: CCCCC1(C)C2CCC(C2)C1N (stereo not drawn) [Compound 206-P2]
- EC50 ([1]; read-out: EC50(Spot)): > 32 µM
- ECMax (%) [1]: −10.5%
- EC50 ([2]; read-out: WT EC50 (Cytoplasm)): > 32 µM
- WT ECMax (%) [2]: −3.86%

Molecule: COCC1CCCC2(C1)C1CCC(C1)C2N.Cl (racemic) [Compound 225-1, rac-3′-(methoxymethyl)spiro[bicyclo[2.2.1]heptane-2,1′-cyclohexan]-3-amine hydrogen chloride]
- EC50 ([1]; read-out: EC50): > 16 µM
- Emax [1]: −13.3
- EC50 ([2]; read-out: WT EC50): > 16 µM
- WT EMax [2]: −15.8

Molecule: C[C@H]1CCC[C@]2(C1)[C@H]1CC[C@H](C1)[C@H]2N.Cl [Compound 214-P1-B]
- EC50 ([1]; read-out: EC50(Spot)): 12.1 µM
- ECMax (%) [1]: −58.73%
- EC50 ([2]; read-out: WT EC50 (Cytoplasm)): > 32 µM
- WT ECMax (%) [2]: −12.08%

Molecule: CC(C)[C@@]1(C)[C@H]2CC[C@H](C2)[C@@H]1N.Cl [Compound 246-B, (1R,2S,3S,4S)-3-isopropyl-3-methylbicyclo[2.2.1]heptan-2-amine hydrochloride]
- EC50 ([1]; read-out: EC50): 6.99 µM
- Emax [1]: −69.3
- EC50 ([2]; read-out: WT EC50): > 16 µM
- WT EMax [2]: 6.2

Molecule: CCC1(CC)[C@H]2CC[C@H](C2)[C@]1(N)c1cccs1.Cl [Compound 247, (1R,2R,4S)-3,3-diethyl-2-(thiophen-2-yl)bicyclo[2.2.1]heptan-2-amine hydrochloride]
- EC50 ([1]; read-out: EC50): > 16 µM
- Emax [1]: −45.8
- EC50 ([2]; read-out: WT EC50): > 16 µM
- WT EMax [2]: 5.7

Molecule: Cl.NC1C2CCC(C2)C12CC=CC2 (racemic) [Compound 248, rac-spiro[bicyclo[2.2.1]heptane-2,1′-cyclopentan]-3′-en-3-amine hydrochloride]
- EC50 ([1]; read-out: EC50): 0.11 µM
- Emax [1]: −83.1
- EC50 ([2]; read-out: WT EC50): 9.8 µM
- WT EMax [2]: 36.5

Molecule: NC1C2CCC(C2)C12CCC(O)C2 (racemic) [Compound 249B, rac-3-aminospiro[bicyclo[2.2.1]heptane-2,1′-cyclopentan]-3′-ol]
- EC50 ([1]; read-out: EC50): 4.14 µM
- Emax [1]: −72.5
- EC50 ([2]; read-out: WT EC50): > 16 µM
- WT EMax [2]: −6.7

Molecule: Cl.N[C@@H]1[C@@H]2CC[C@@H](C2)[C@]12CC=CCC2 (racemic) [Compound 213]
- EC50 ([1]; read-out: EC50(Spot)): 0.02 µM
- ECMax (%) [1]: −86.49%
- EC50 ([2]; read-out: WT EC50 (Cytoplasm)): > 1.8 µM
- WT ECMax (%) [2]: ~175%

Molecule: CCCC1(CCC)[C@H]2CC[C@H](C2)[C@H]1N.Cl (racemic) [Compound 205]
- EC50 ([1]; read-out: EC50(Spot)): > 32 µM
- ECMax (%) [1]: −3.08%
- EC50 ([2]; read-out: WT EC50 (Cytoplasm)): > 32 µM
- WT ECMax (%) [2]: −12.24%

Molecule: NC1C2CCC(C2)C12CC1CCC2C1 (racemic) [Compound 238-A, rac-2,2′-spirobi[bicyclo[2.2.1]heptan]-3-amine]
- EC50 ([1]; read-out: EC50): 0.006 µM
- Emax [1]: −108.1
- EC50 ([2]; read-out: WT EC50): 1.8 µM
- WT EMax [2]: 38.7

Molecule: Cl.N[C@@H]1[C@@H]2CC[C@@H](C2)C12CCC[C@H](O)C2 (stereo partly drawn) [Compound 241-A, (1S,3R,3′S,4R)-3-aminospiro[bicyclo[2.2.1]heptane-2,1′-cyclohexan]-3′-ol hydrochloride]
- EC50 ([1]; read-out: EC50): > 16 µM
- Emax [1]: −11.4
- EC50 ([2]; read-out: WT EC50): > 16 µM
- WT EMax [2]: −5.7

Molecule: CC(C)[C@@]1(C)[C@H]2CC[C@H](C2)[C@H]1N.Cl [Compound 246-A, (1R,2R,3S,4S)-3-isopropyl-3-methylbicyclo[2.2.1]heptan-2-amine hydrochloride]
- EC50 ([1]; read-out: EC50): 1.9 µM
- Emax [1]: −67.8
- EC50 ([2]; read-out: WT EC50): > 16 µM
- WT EMax [2]: 20.7

Molecule: NC1C2CCC(C2)C12CCC(O)C2 (racemic) [Compound 249C, rac-3-aminospiro[bicyclo[2.2.1]heptane-2,1′-cyclopentan]-3′-ol]
- EC50 ([1]; read-out: EC50): 6.38 µM
- Emax [1]: −74.4
- EC50 ([2]; read-out: WT EC50): > 16 µM
- WT EMax [2]: −11.9

Molecule: C[C@H]1CC[C@@]2(C1)[C@H]1CC[C@H](C1)[C@H]2N.Cl [Compound 210-P1-A]
- EC50 ([1]; read-out: EC50(Spot)): 26.9 µM
- ECMax (%) [1]: −33.62%
- EC50 ([2]; read-out: WT EC50 (Cytoplasm)): > 32 µM
- WT ECMax (%) [2]: 0.73%

Molecule: Cl.N[C@H]1[C@@H]2CC[C@@H](C2)C12CCCCC2 [Compound 231, (1S,3S,4R)-spiro[bicyclo[2.2.1]heptane-2,1′-cyclohexan]-3-amine hydrochloride]
- EC50 ([1]; read-out: EC50): 1.63 µM
- Emax [1]: −76.5
- EC50 ([2]; read-out: WT EC50): > 16 µM
- WT EMax [2]: −7.0

Molecule: C[C@@H]1CC[C@]2(C1)[C@H]1CC[C@H](C1)[C@H]2N.Cl [Compound 211-P1-A]
- EC50 ([1]; read-out: EC50(Spot)): 1.22 µM
- ECMax (%) [1]: −87.44%
- EC50 ([2]; read-out: WT EC50 (Cytoplasm)): > 5.6 µM
- WT ECMax (%) [2]: 9.39%

Molecule: NC1C2CCC(C2)C12CC1CC1C2 (racemic) [Compound 236, rac-spiro[bicyclo[2.2.1]heptane-2,3′-bicyclo[3.1.0]hexan]-3-amine]
- EC50 ([1]; read-out: EC50): 0.962 µM
- Emax [1]: −89.6
- EC50 ([2]; read-out: WT EC50): > 16 µM
- WT EMax [2]: −20.3

Molecule: C[C@@H]1CCC[C@]2(C1)[C@H]1CC[C@H](C1)[C@H]2N.Cl [Compound 214-P1-A]
- EC50 ([1]; read-out: EC50(Spot)): 10.5 µM
- ECMax (%) [1]: −26.27%
- EC50 ([2]; read-out: WT EC50 (Cytoplasm)): > 32 µM
- WT ECMax (%) [2]: 3.96%

Molecule: (1S,3R,4R)-spiro[bicyclo[2.2.1]heptane-3,1′-cyclohexan]-2-amine [Compound 212-P2]
- EC50 ([1]; read-out: EC50(Spot)): 0.01 µM
- ECMax (%) [1]: −68.36%
- EC50 ([2]; read-out: WT EC50 (Cytoplasm)): 2.6 µM
- WT ECMax (%) [2]: 183.41%

Molecule: C[C@H]1CC[C@@]2(C1)[C@@H]1CC[C@@H](C1)[C@@H]2N.Cl [Compound 211-P2-A]
- EC50 ([1]; read-out: EC50(Spot)): 20.1 µM
- ECMax (%) [1]: −23.56%
- EC50 ([2]; read-out: WT EC50 (Cytoplasm)): > 32 µM
- WT ECMax (%) [2]: 3.22%
